Experimental findings from paper doi:10.1101/2020.08.07.241463v2 (biorxiv, 2020) are described below.

The target in this assay is T1, OpuAC (free / soluble substrate-binding domain) (Lactococcus lactis, UniProt Q7DAU8, N367C/N423C).
T1 sequence (Q7DAU8 320-573 N367C/N423C): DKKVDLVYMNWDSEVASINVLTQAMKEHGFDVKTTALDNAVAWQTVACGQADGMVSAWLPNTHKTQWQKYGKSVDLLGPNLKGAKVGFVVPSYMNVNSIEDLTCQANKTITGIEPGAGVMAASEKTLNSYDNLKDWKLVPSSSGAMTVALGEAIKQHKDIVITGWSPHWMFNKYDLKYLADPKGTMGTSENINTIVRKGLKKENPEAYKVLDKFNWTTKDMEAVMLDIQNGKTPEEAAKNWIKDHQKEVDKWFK
Description: smFRET.

A word on the Kd: it is a measure of binding affinity in units of concentration. A higher Kd goes with a looser complex. Compound `C[N+](C)(C)CC(=O)[O-]` [GB, glycine betaine] gave a Kd of about 6 µM.
